This is an account of results in patent US5449750A, “Prolyl endopeptidase inhibitors SNA-115 and SNA-115T, and process for the production and productive strain thereof” (Snow Brand Milk Products Co., Ltd., priority 1991, dated 1995).

Values joined by “and” are separate entries in the source; they are usually repeats but may differ in a detail not shown here. Equal entries are not always repeated. Where two headings read alike, the source gives them in different places. Where a SMILES comes first, the peptide text is derived from it. Bridges are numbered along the chain shown (N, C = ends). Roman numbers before positions name the chains, in order. Where only a bound is given, the exact number is not on record here.

Data set [1] concerns Salmonella typhimurium SL 1102. The data set can be described thus: Antimicrobial activity, paper disc method. The following applies: 40 μg per disc. It is filed as cell-based. The protocol:
(§1) The antimicrobial activity of SNA-115 was determined in 24 bacteria, fungi, and yeasts by paper disc method. SNA-115 was placed on paper discs at an amount of 40 μg each and the disc was placed on the test plates. The test plates were cultured under optimal conditions of the test microorganisms.
The antimicrobial activity of SNA-115T compound was determined in 9 bacteria and fungi by paper disc method in an agar plate. SNA-115T was placed on paper discs at an amount of 40 μg each and the disc was placed on the test plates. The test plates were cultured under optimal conditions of the rest microorganisms. The inhibition zones of SNA-115 were also shown for the comparison.

Data set [2] in a line: Acute toxicity (intravenous injection).
Data set [3] deals with prolyl endopeptidase derived from Flavobacterium (Elizabethkingia meningoseptica, UniProt P27028). The data set can be described thus: Prolyl endopeptidase inhibitory activity (Z-Gly-Pro-pNA substrate, p-nitroaniline at 410 nm). It is filed as biochemical. The following applies: for IC50: 50% inhibitory concentration (IC50), 0.2 mM Z-Gly-Pro-pNA as substrate, sample in methanol, 30° C., pH 7.0; for inhibitory pattern / Ki: Dixon plot; for Ki: inhibitor constant Ki, various concentrations of substrate and inhibitor.

Data set [4] concerns Pseudomonas aeruginosa N-10 (L-form). In words: Antimicrobial activity, paper disc method. The conditions noted are these: 40 μg per disc. In kind it is cell-based.
For data set [5], the system named is Botrytis cinerea IFO 5365. The data set can be described thus: Antimicrobial activity, paper disc method. The following applies: 40 μg per disc. It is filed as cell-based.
For data set [6], the system named is Mycobacterium phlei IFO 3158. The data set can be described thus: Antimicrobial activity, paper disc method. It is filed as cell-based. The following applies: 40 μg per disc.
Data set [7] has as its system Xanthomonas oryzae IFO 3312. In kind it is cell-based.
The next data set has as its system Bacillus subtilis rec^+. The data set can be described thus: Antimicrobial activity, paper disc method. In kind it is cell-based. The following applies: 40 μg per disc.
The test system of data set [8] is Pyricularia oryzae IFO 5994. It is filed as cell-based.
In the next data set the test system is Bacillus subtilis rec^-. The data set can be described thus: Antimicrobial activity, paper disc method. It is filed as cell-based. The following applies: 40 μg per disc.
Data set [9] concerns Xanthomonas citri IFO 3781. The data set can be described thus: Antimicrobial activity, paper disc method. In kind it is cell-based. The following applies: 40 μg per disc.
The subject of data set [10] is mouse leukemia L1210 cells. The data set can be described thus: Cytotoxicity, cell proliferation (MTT). The conditions noted are these: 72 hrs culture. In kind it is cell-based. As to the method: (§2) Human epidermoid carcinoma (oral) KB cells and mouse leukemia L1210 cells each were placed in a 96 wells microplate (2,000 cells/100 μl/well). The former cells were cultured in DMEM medium and the latter cells were cultured in RPMI 1640 medium, each containing 5% FCS. They were cultured in the presence of 5% CO2 at 37° C. for 24 hrs. Five μl each of a serial concentration of SNA-115 in methanol were added to the wells and cultured for 72 hrs. and cultured further 4 hrs. after the addition of 10 μl of 2.5 mg/ml MTT solution to produce formazan. The cultured mixture was centrifuged at 2,000 rpm for 2 min., the supernatant was removed, 100 μl of DMSO was added to the residue and the absorption at 540 nm was determined by an immunoreader. The cell proliferation inhibitory activity of samples was obtained from comparison of their ratios to that of control group.

For data set [11], the system named is Human epidermoid carcinoma (oral) KB cells. In words: Cytotoxicity, cell proliferation (MTT). It is filed as cell-based. The conditions noted are these: 72 hrs culture. The protocol:
as §2

The next data set has as its system Alternaria mali IFO 8984. The data set can be described thus: Antimicrobial activity, paper disc method. It is filed as cell-based. The following applies: 40 μg per disc. As to the method: as §1
Data set [12] deals with Staphylococcus aureus multi resistant. In words: Antimicrobial activity, paper disc method. It is filed as cell-based. The following applies: 40 μg per disc. The protocol: as §1
For data set [13], the system named is Escherichia coli multi resistant. In words: Antimicrobial activity, paper disc method. The conditions noted are these: 40 μg per disc. It is filed as cell-based. The protocol:
as §1

In data set [14] the test system is Colletotrichum lagenarium IFO 7513. In words: Antimicrobial activity, paper disc method. The following applies: 40 μg per disc. It is filed as cell-based. The protocol:
as §1

For another data set, the system named is Chlorella vulgaris. In words: Antimicrobial activity, paper disc method. In kind it is cell-based. The following applies: 40 μg per disc. As to the method: as §1
Data set [15] concerns Fusarium oxysporum IFO 9761. In words: Antimicrobial activity, paper disc method. In kind it is cell-based. The following applies: 40 μg per disc. The protocol:
as §1

Data set [16] has as its system Micrococcus luteus IFO 12708. The data set can be described thus: Antimicrobial activity, paper disc method. It is filed as cell-based. The following applies: 40 μg per disc. The protocol: as §1
Data set [17] deals with Trichophyton rubrum IFO 6203. The data set can be described thus: Antimicrobial activity, paper disc method. It is filed as cell-based. The conditions noted are these: 40 μg per disc. The protocol:
as §1

Data set [18] deals with Pseudomonas aeruginosa IFO 13130. The data set can be described thus: Antimicrobial activity, paper disc method. It is filed as cell-based. The following applies: 40 μg per disc. The protocol: as §1
The next data set deals with Escherichia coli AB 1157. In words: Antimicrobial activity, paper disc method. It is filed as cell-based. The conditions noted are these: 40 μg per disc. The protocol: as §1
Another data set concerns Escherichia coli BE 1186. The data set can be described thus: Antimicrobial activity, paper disc method. In kind it is cell-based. The following applies: 40 μg per disc. The protocol: as §1
For data set [19], the system named is Candida albicans IFO 1594. The data set can be described thus: Antimicrobial activity, paper disc method. The conditions noted are these: 40 μg per disc. It is filed as cell-based. As to the method:
as §1

The subject of data set [20] is Salmonella typhimurium TV 119. The data set can be described thus: Antimicrobial activity, paper disc method. In kind it is cell-based. The following applies: 40 μg per disc. As to the method:
as §1

Data set [21] deals with Staphylococcus aureus IFO 12732. The data set can be described thus: Antimicrobial activity, paper disc method. It is filed as cell-based. The following applies: 40 μg per disc. As to the method: as §1
In data set [22] the test system is Schizosaccharomyces Pombe IFO 0638. The data set can be described thus: Antimicrobial activity, paper disc method. The following applies: 40 μg per disc. It is filed as cell-based. The protocol:
as §1

Another data set in a line: Solubility in solvents. The following applies: organic solvents and water, qualitative.
Setting [23] is: ( ) indicates partial inhibition.

prolyl endopeptidase derived from Flavobacterium, sequence (P27028 21-705): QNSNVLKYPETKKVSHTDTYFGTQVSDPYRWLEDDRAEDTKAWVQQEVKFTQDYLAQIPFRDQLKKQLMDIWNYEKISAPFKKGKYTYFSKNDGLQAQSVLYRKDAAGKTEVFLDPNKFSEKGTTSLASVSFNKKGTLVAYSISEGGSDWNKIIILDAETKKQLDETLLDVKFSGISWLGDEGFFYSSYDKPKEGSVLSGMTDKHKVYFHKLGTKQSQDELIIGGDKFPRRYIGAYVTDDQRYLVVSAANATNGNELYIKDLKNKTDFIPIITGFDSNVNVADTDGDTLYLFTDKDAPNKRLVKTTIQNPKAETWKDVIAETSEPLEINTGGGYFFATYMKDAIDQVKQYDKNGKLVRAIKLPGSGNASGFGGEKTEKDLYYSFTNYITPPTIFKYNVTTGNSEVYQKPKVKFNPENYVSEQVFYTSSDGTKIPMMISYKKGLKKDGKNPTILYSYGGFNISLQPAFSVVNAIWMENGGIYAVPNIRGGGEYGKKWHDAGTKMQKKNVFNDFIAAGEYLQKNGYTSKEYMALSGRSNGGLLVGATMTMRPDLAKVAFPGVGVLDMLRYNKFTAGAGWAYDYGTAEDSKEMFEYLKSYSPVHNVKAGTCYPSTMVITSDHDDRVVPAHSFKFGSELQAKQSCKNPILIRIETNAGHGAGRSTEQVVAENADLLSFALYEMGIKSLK

By IC50 is commonly meant the concentration at which inhibition is half-maximal. A low value points to greater potency. What is called Ki is a measure of affinity in units of concentration, obtained from inhibition or displacement. Low readings indicate tighter binding, high ones weaker binding. `CC[C@H](C)[C@H](NC(=O)[C@H](Cc1ccccc1)NC(=O)[C@@H](NC(=O)[C@H](Cc1c[nH]cn1)NC(=O)CNC(=O)CNC(=O)[C@H](Cc1ccccc1)NC(=O)[C@H](CC(C)C)NC(=O)[C@@H](N)CC(=O)NCC(=O)N[C@@H](Cc1ccc(O)cc1)C(=O)N1CCC[C@H]1C(=O)N[C@@H](Cc1c[nH]c2ccccc12)C(=O)N[C@@H](Cc1c[nH]c2ccccc12)C(=O)N[C@@H](CC(=O)O)C(=O)N[C@@H](Cc1ccc(O)cc1)C(=O)N[C@@H](CCCNC(=N)N)C(=O)O)[C@@H](C)O)C(=O)N[C@@H](CO)C(=O)N1CCC[C@H]1C(=O)O` [SNA-115T] (I: H-DLFGGHTFISP-OH / II: GYPWWDYR-OH; amide I:1-II:N): the Inhibition zone is 0 mm in [1]; 0 mm in data set [4]; 0 mm in data set [5]; 0 mm in data set [6]; 0 mm in [7] (paper disc, 40 μg per disc); 0 mm in the data set with Bacillus subtilis rec^+. Moreover, the Inhibition zone in data set [8] (paper disc, 40 μg per disc) is on record as 0 mm; with Bacillus subtilis rec^-, 0 mm; in data set [9], 0 mm. The acute toxicity in [2] is listed as ≥ 10 mg/kg. Besides, in [3], the half-inhibitory concentration (IC50) was 1300 nM. For the same molecule, the inhibitory pattern entry in data set [3] is reported as “competitive inhibition”. Besides, in data set [3], the inhibition constant Ki was 475 nM and 480 nM.
Take `CC[C@H](C)[C@H](NC(=O)[C@H](Cc1ccccc1)NC(=O)[C@@H](NC(=O)[C@H](Cc1c[nH]cn1)NC(=O)CNC(=O)CNC(=O)[C@H](Cc1ccccc1)NC(=O)[C@H](CC(C)C)NC(=O)[C@@H]1CC(=O)NCC(=O)N[C@@H](Cc2ccc(O)cc2)C(=O)N2CCC[C@H]2C(=O)N[C@@H](Cc2c[nH]c3ccccc23)C(=O)N[C@@H](Cc2c[nH]c3ccccc23)C(=O)N[C@@H](CC(=O)O)C(=O)N[C@@H](Cc2ccc(O)cc2)C(=O)N[C@@H](CCCNC(=N)N)C(=O)N1)[C@@H](C)O)C(=O)N[C@@H](CO)C(=O)N1CCC[C@H]1C(=O)O` [SNA-115] (GYPWWDYRDLFGGHTFISP-OH; lactam N-9): the Inhibition zone is 0 mm in data set [1]; 10.6 mm and 16.8 mm in [4]; 0 mm in [5]; 14.5 mm and 13.8 mm in [6]; 11.5 mm in data set [7]; 0 mm in the data set on Bacillus subtilis rec^+. Besides, the Inhibition zone (in data set [8]; with Bacillus subtilis rec^-; in the data set on Alternaria mali IFO 8984; in data set [12]; in data set [13]; in [14]) was 0 mm throughout. For the same molecule, the Inhibition zone (in the data set with Chlorella vulgaris; in data set [15]; in data set [16]; in data set [17]; in data set [18]; with Escherichia coli AB 1157) was 0 mm each time. Also, the Inhibition zone (with Escherichia coli BE 1186; in data set [19]; in [20]; in [21]; in data set [22]; in [9]) was 0 mm each time. Moreover, the inhibitory pattern result in [3] is given as “competitive inhibition”. For the same molecule, the “Inhibition zone, partial inhibition (value in parentheses)” value (in data set [4] (setting [23]); in the data set on Bacillus subtilis rec^- (setting [23])) was 15.2 mm throughout. Moreover, the “Inhibition zone (class symbol)” value in data set [7] is on record as “+ (key: + indicates inhibitory zone diameter of 10 mm or less)”. Moreover, the “IC50 against cell proliferation” value in data set [10] and in data set [11] was > 1,000 μg/ml throughout.
Turning to `CC[C@H](C)[C@H](NC(=O)[C@H](Cc1ccccc1)NC(=O)[C@@H](NC(=O)[C@H](Cc1cnc[nH]1)NC(=O)CNC(=O)CNC(=O)[C@H](Cc1ccccc1)NC(=O)[C@H](CC(C)C)NC(=O)[C@@H]1CC(=O)NCC(=O)N[C@@H](Cc2ccc(O)cc2)C(=O)N2CCC[C@H]2C(=O)N[C@@H](Cc2c[nH]c3ccccc23)C(=O)N[C@@H](Cc2c[nH]c3ccccc23)C(=O)N[C@@H](CC(=O)O)C(=O)N[C@@H](Cc2ccc(O)cc2)C(=O)N[C@@H](CCCNC(=N)N)C(=O)N1)[C@@H](C)O)C(=O)N[C@@H](CO)C(=O)N1CCC[C@H]1C(=O)O` [SNA-115] (GYPWWDYRDLFGGHTFISP-OH; lactam N-9), the acute toxicity in data set [2] is recorded as ≥ 10 mg/kg. In addition, in data set [3], the IC50 is 1130 nM and 1100 nM; the inhibition constant Ki was 697 nM and 700 nM. For the same molecule, the Solubility result in the data set “Solubility in solvents” is “Soluble in methanol, dimethylsulfoxide, butanol and ethanol, and insoluble in acetonitrile, chloroform, acetone and water”.
